Test results from patent publication US20110033390A1, “MR IMAGING AGENT OR MEDIUM COMPRESSING HYPERPOLARISED 13C ALANINE AND METHODS OF IMAGING WHEREIN SUCH AN IMAGING MEDIUM IS USED” (priority 2008, published 2011).

Tests used:
[1] = Liquid state polarisation after dissolution and neutralization, by liquid state 13C-NMR at 400 MHz; format: physicochemical
Protocol: In a similar way, the level of polarisation for hyperpolarised ^13C-alanine in solution may be determined by liquid state NMR measurements. Again the signal intensity of the hyperpolarised ^13C-alanine in solution is compared with the signal intensity of the ^13C-alanine in solution before polarisation. The level of polarisation is then calculated from the ratio of the signal intensities of ^13C-alanine before and after polarisation.
After 150 minutes of dynamic nuclear polarisation, the obtained frozen polarised solution was dissolved in a dissolution medium containing 6 ml of a phosphate buffer (20 mM, pH 6.8, 100 mg/l EDTA), aqueous NaOH (27 μl 12 M solution, 1 eq) and 30 mg NaCl. The pH of the final liquid was 6.8.
Liquid state polarisation was determined by liquid state ^13C-NMR at 400 MHz to be 35%.
After 120 minutes of dynamic nuclear polarisation, the obtained frozen polarised solution was dissolved in a dissolution medium containing 6 ml BIS TRIS (40 mM, pH 6, 100 mg/l EDTA, 0.9% NaCl). The pH of the final solution containing the dissolved composition was 6.
Liquid state polarisation was determined by liquid state ^13C-NMR at 400 MHz to be 16%.

Hep-G2 cells = assay: In vitro 13C-MR spectroscopy with hyperpolarised 13C1-alanine imaging medium; format: cell-based, human; details: 3 mM 13C1-alanine, 10x10^6 Hep-G2 cells, 20 s incubation
Protocol: An imaging medium was prepared as described in Example 1 and 100 μl of the imaging medium (3 mM ^13C1-alanine) was mixed into 10×10^6 Hep-G2 cells (human hepatocellular carcinoma cells). A single ^13C-MR spectrum was acquired after a total of 20 s incubation time with a 90 degree RF pulse. ^13C1-pyruvate and ^13C1-lactate were identified in the spectrum. The conversion of alanine was approximately 0.1% to both lactate and pyruvate.

mice (whole body) = assay: In vivo 13C-MR spectroscopy in mice (whole body); design: species or system mouse
Protocol: 175 μl of an imaging medium which was prepared as described in Example 1 was injected into a C57B1/6 mouse over a time period of 6 s. The ^13C1-alanine concentration in said imaging medium was approximately 50 mM and 3 animals were used in the experiment. A rat size whole body coil (tuned for proton and carbon) was placed over the animal and ^13C-MR spectroscopy was carried out in a 9.4 T magnet. A dynamic set of ^13C-MR spectra (in total 5) was acquired every 5 s with a 15 degree RF pulse. Metabolism was seen to ^13C1-lactate (approximately 1% of the ^13C1-lactate signal), see FIG. 1. […] The following decay time was calculated from the MR spectra: ^13C1-lactate 33 s. […] It is thus favourable to detect the lactate signal which due to its slow decay provides a larger MR detection window.

mouse liver = assay: In vivo 13C-MR spectroscopy in mice (liver); details: C57B1/6 mouse, surface coil over liver
Protocol: 175 μl of an imaging medium which was prepared as described in Example 1 was injected into a C57B1/6 mouse over a time period of 6 s. The ^13C1-alanine concentration in said imaging medium was approximately 55 mM. A surface coil (tuned for proton and carbon) was positioned over the liver of the animal and ^13C-MR spectroscopy was carried out in a 9.4 T magnet. A dynamic set of ^13C-MR spectra (in total 15) was acquired every 5 s with a 30 degree RF pulse. This experiment confirmed that ^13C1-lactate is building up during the time course of the experiment, see FIG. 3.

mouse heart = assay: In vivo 13C-MR spectroscopy in mice (heart)
Protocol: 175 μl of an imaging medium which was prepared as described in Example 1 was injected into a C57B1/6 mouse over a time period of 6 s. The ^13C1-alanine concentration in said imaging medium was about 55 mM. A surface coil (tuned for proton and carbon) was positioned over the heart of the animal and ^13C-MR spectroscopy was carried out in a 9.4 T magnet. A dynamic set of ^13C-MR spectra (in total 10) was acquired every 5 s with a 30 degree RF pulse. […] The lactate seen in the experiment is expected to originate from pyruvate. […] Comparing Examples 5 and 6, a different metabolic profile is obtained for the liver and the heart showing that ^13C-alanine is a tissue specific metabolic marker.

[2] = Solid state polarisation after DNP, by solid state 13C-NMR; format: physicochemical; details: DNP at 1.2 K, 3.35 T, microwave 93.90 GHz; trityl radical and Gd-chelate present
Description: The level of polarisation may for instance be determined by solid state ^13C-NMR measurements in solid hyperpolarised ^13C-alanine, e.g. solid hyperpolarised ^13C-alanine obtained by dynamic nuclear polarisation (DNP) of ^13C-alanine. The solid state ^13C-NMR measurement preferably consists of a simple pulse-acquire NMR sequence using a low flip angle. The signal intensity of the hyperpolarised ^13C-alanine in the NMR spectrum is compared with signal intensity of ^13C-alanine in a NMR spectrum acquired before the polarisation process. The level of polarisation is then calculated from the ratio of the signal intensities of before and after polarisation.
The probe is inserted into the probe-retaining container, submerged in the liquid helium and irradiated with microwaves, preferably at a frequency of about 94 GHz at 200 mW. The level of polarisation may for instance be monitored by solid state ^13C-NMR measurements of the ^13C-nuclei in the frozen composition comprising the hyperpolarised sample. […] The level of polarisation is then calculated from the ratio of the signal intensities of before and after polarisation.
32.5 mg (0.258 mmol) of the ^13C1-alaninium chloride obtained in Example 1a was added to 42 mg of a stock solution in a micro test tube. […] Polarisation was followed by solid state ^13C-NMR and the solid state polarisation was determined to be 40%. […]

[3] = mouse, in vivo
Protocol: In another preferred embodiment, the imaging medium comprising hyperpolarised ^13C-alanine is administered repeatedly, thus allowing dynamic studies. This is a further advantage of the method according to the invention compared to other MR detection methods using conventional MR contrast agents which—in higher doses—may show toxic effects.

[4] = Relaxation / loss of polarisation in solution as a function of pH; format: physicochemical; details: solutions with a pH above 7
Description: If the sample used in the composition for DNP is a carboxylate salt of ^13C-alanine, said salt needs to be converted to the free ^13C-alanine by reaction (neutralization) with an acid. […] Thus, if a carboxylate salt of ^13C-alanine was used in the composition for DNP, the liquefaction and neutralization of the solid composition comprising the hyperpolarised carboxylate salt of ^13C-alanine needs to be carried out carefully in order to avoid loss of polarisation. Neutralization may be carried out simultaneously or subsequently to the liquefaction, for the latter it must be taken care that neutralization is carried out quickly and directly after liquefaction. Thus, in one embodiment the liquefaction is carried out by melting or dissolution of the frozen composition and neutralization with an acid is quickly carried out after the frozen composition was dissolved/melted. In another embodiment, liquefaction and neutralization are carried out simultaneously, e.g. by dissolving the frozen composition in a dissolution medium which is or contains an acid that is capable of converting the hyperpolarised carboxylate salt of ^13C-alanine to ^13C-alanine. In yet another embodiment the acid is added to the probe-retaining cup which contains the frozen composition in the dynamic nuclear polarisation process. […] The most preferred acid is HCl since it is cheap and readily available.

Structure (SMILES): CC(N)[13C](=O)O (stereo not drawn) [^13C1-alanine]
- liquid state polarisation ([1]; Example 1c: from 13C1-alaninium chloride after 150 min DNP, dissolved in phosphate buffer/NaOH, final pH 6.8): 35%
- liquid state polarisation ([1]; Example 2: from sodium 13C1-2-amino-propanoate after 120 min DNP, dissolved in BIS TRIS, HCl neutralization, final pH 6): 16%
- conversion of alanine to lactate (Hep-G2 cells): approximately 0.1%
- conversion of alanine to pyruvate (Hep-G2 cells): approximately 0.1%
- metabolism to 13C1-lactate (relative signal) (mice (whole body); C57B1/6 mouse, 175 µl of approx. 50 mM injected over 6 s, whole body coil, 9.4 T): approximately 1%
- pyruvate signal (mice (whole body); mouse whole body): No pyruvate signal could be detected
- 13C1-lactate signal over the time course (mouse liver; 175 µl of approx. 55 mM): building up
- 13C1-pyruvate and 13C1-bicarbonate signals (mouse liver; 15 combined spectra): could be detected
- build-up of 13C1-lactate (mouse heart; C57B1/6 mouse, 175 µl of about 55 mM, surface coil over heart): noteworthy slow
- pyruvate signal (mouse heart; mouse heart): absence of pyruvate

Structure (SMILES): C[C@H](N)[13C](=O)O.Cl [^13C1-alaninium chloride]
- solid state polarisation [2]: 40%

Structure (SMILES): C[C@H](O)[13C](=O)O [^13C1-lactate]
- decay time calculated from the MR spectra (mice (whole body); 13C1-lactate signal after injection of hyperpolarised 13C1-alanine, mouse whole body): 33 s

Structure (SMILES): CC(N)C(=O)O (stereo not drawn) [hyperpolarised ^13C-alanine, 2-amino-propanoic acid]
- tolerability [3]: well tolerated
- relaxation rate / loss of polarisation [4]: high relaxation rates

Structure (SMILES): CC(N)[13C](=O)[O-].[Na+] (stereo not drawn) [sodium ^13C1-2-amino-propanoate]
- solid state polarisation [2]: 18%
